# Key:
# Taselisib/GDC0032 = compound: Cc1nc(-c2cn3c(n2)-c2ccc(-c4cnn(C(C)(C)C(N)=O)c4)cc2OCC3)n(C(C)C)n1 [Taselisib/GDC0032]
# [1] = compound: CO[C@@H](C)Cn1c(=O)n(C)c2cnc3ccc(-c4cncc(C(C)(C)O)c4)cc3c21
# Flavopiridol [2] = compound: T1, CN1CC[C@H](c2c(O)cc(O)c3c(=O)cc(-c4ccccc4Cl)oc23)[C@H](O)C1 [Flavopiridol]
# Saracatinib/AZD0530 = compound: CN1CCN(CCOc2cc(OC3CCOCC3)c3c(Nc4c(Cl)ccc5c4OCO5)ncnc3c2)CC1 [Saracatinib/AZD0530]
# ABT-737 = compound: CN(C)CC[C@H](CSc1ccccc1)Nc1ccc(S(=O)(=O)NC(=O)c2ccc(N3CCN(Cc4ccccc4-c4ccc(Cl)cc4)CC3)cc2)cc1[N+](=O)[O-] [ABT-737]
# BSJ-03-123 = compound: CC(=O)c1c(C)c2cnc(Nc3ccc(N4CCN(CCOCCOCCOCCNC(=O)COc5cccc6c5C(=O)N(C5CCC(=O)NC5=O)C6=O)CC4)cn3)nc2n(C2CCCC2)c1=O [BSJ-03-123]; assay: GR value, 72 h; higher = faster growth (1 = untreated, <0 = killing);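 also: breast cancer and non-malignant breast epithelial lines, nine half-log doses, viable cells counted by Hoechst and LIVE/DEAD dye imaging versus time-zero plates and DMSO controls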
# Flavopiridol [3] = compound: T1, Flavopiridol; assay: as above
# THZ1 = compound: CN(C)C/C=C/C(=O)Nc1ccc(C(=O)Nc2cccc(Nc3ncc(Cl)c(-c4c[nH]c5ccccc45)n3)c2)cc1 [THZ1]; assay: as above
# LEE011/Ribociclib = compound: CN(C)C(=O)c1cc2cnc(Nc3ccc(N4CCNCC4)cn3)nc2n1C1CCCC1 [LEE011/Ribociclib]; assay: as above
# THZ531 = compound: CN(C)C/C=C/C(=O)Nc1ccc(C(=O)N2CCC[C@@H](Nc3ncc(Cl)c(-c4c[nH]c5ccccc45)n3)C2)cc1 [THZ531]; assay: as above
# YKL-5-124 = compound: C=CC(=O)Nc1ccc(C(=O)Nc2[nH]nc3c2CN(C(=O)N[C@H](CN(C)C)c2ccccc2)C3(C)C)cc1 [YKL-5-124]; assay: as above
# [4] = compound: CCN1CCN(Cc2ccc(Nc3ncc(F)c(-c4cc(F)c5nc(C)n(C(C)C)c5c4)n3)nc2)CC1; assay: as above
# [5] = compound: CCc1cnn2c(NCc3ccc[n+]([O-])c3)cc(N3CCCC[C@H]3CCO)nc12; assay: as above
# [6] = compound: CC(=O)c1c(C)c2cnc(Nc3ccc(N4CCNCC4)cn3)nc2n(C2CCCC2)c1=O; assay: as above
# Neratinib/HKI272 = compound: CCOc1cc2ncc(C#N)c(Nc3ccc(OCc4ccccn4)c(Cl)c3)c2cc1NC(=O)/C=C/CN(C)C [Neratinib/HKI272]; assay: as above
# 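For GR50, 72 h in this document: breast cancer and non-malignant breast epithelial cell lines, Deep Dye Drop or Dye Drop imaging, nine half-log doses, GR normalized to time-zero plates and DMSO-only controls.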
cell line,measurement,setting,value
SUM185PE,"GR50, 72 h",Taselisib/GDC0032,0.00177 µM
same,"GR50, 72 h",[1],0.00357 µM
same,"GR50, 72 h",Flavopiridol [2],0.149 µM
same,"GR50, 72 h",Saracatinib/AZD0530,1.65 µM
same,"GR50, 72 h",ABT-737,0.927 µM
same,GR value,BSJ-03-123; 0.001 µM,0.901 GR
same,GR value,BSJ-03-123; 0.003162 µM,0.946 GR
same,GR value,BSJ-03-123; 0.01 µM,0.906 GR
same,GR value,BSJ-03-123; 0.03162 µM,0.922 GR
same,GR value,BSJ-03-123; 0.1 µM,0.819 GR
same,GR value,BSJ-03-123; 0.3162 µM,0.776 GR
same,GR value,BSJ-03-123; 1 µM,0.799 GR
same,GR value,BSJ-03-123; 3.162 µM,0.758 GR
same,GR value,BSJ-03-123; 10 µM,0.649 GR
same,GR value,Flavopiridol [3]; 0.0001 µM,1 GR
same,GR value,Flavopiridol [3]; 0.0003162 µM,0.883 GR
same,GR value,Flavopiridol [3]; 0.001 µM,0.776 GR
same,GR value,Flavopiridol [3]; 0.003162 µM,0.933 GR
same,GR value,Flavopiridol [3]; 0.01 µM,0.845 GR
same,GR value,Flavopiridol [3]; 0.03162 µM,0.58 GR
same,GR value,Flavopiridol [3]; 0.1 µM,0.632 GR
same,GR value,Flavopiridol [3]; 0.3162 µM,0.458 GR
same,GR value,Flavopiridol [3]; 1 µM,0.132 GR
same,GR value,THZ1; 0.0001 µM,1.02 GR
same,GR value,THZ1; 0.0003162 µM,0.945 GR
same,GR value,THZ1; 0.001 µM,1.02 GR
same,GR value,THZ1; 0.003162 µM,0.734 GR
same,GR value,THZ1; 0.01 µM,0.855 GR
same,GR value,THZ1; 0.03162 µM,-0.061 GR
same,GR value,THZ1; 0.1 µM,0.0851 GR
same,GR value,THZ1; 0.3162 µM,0.0061 GR
same,GR value,THZ1; 1 µM,-0.203 GR
same,GR value,LEE011/Ribociclib; 0.001 µM,0.867 GR
same,GR value,LEE011/Ribociclib; 0.003162 µM,1.04 GR
same,GR value,LEE011/Ribociclib; 0.01 µM,0.798 GR
same,GR value,LEE011/Ribociclib; 0.03162 µM,0.942 GR
same,GR value,LEE011/Ribociclib; 0.1 µM,1 GR
same,GR value,LEE011/Ribociclib; 0.3162 µM,0.948 GR
same,GR value,LEE011/Ribociclib; 1 µM,0.913 GR
same,GR value,LEE011/Ribociclib; 3.162 µM,0.832 GR
same,GR value,LEE011/Ribociclib; 10 µM,0.846 GR
same,GR value,THZ531; 0.0001 µM,1.06 GR
same,GR value,THZ531; 0.0003162 µM,1 GR
same,GR value,THZ531; 0.001 µM,1.02 GR
same,GR value,THZ531; 0.003162 µM,1.02 GR
same,GR value,THZ531; 0.01 µM,1.03 GR
same,GR value,THZ531; 0.03162 µM,1.06 GR
same,GR value,THZ531; 0.1 µM,0.851 GR
same,GR value,THZ531; 0.3162 µM,-0.187 GR
same,GR value,THZ531; 1 µM,0.19 GR
same,GR value,YKL-5-124; 0.001 µM,0.7 GR
same,GR value,YKL-5-124; 0.003162 µM,0.648 GR
same,GR value,YKL-5-124; 0.01 µM,0.517 GR
same,GR value,YKL-5-124; 0.03162 µM,0.469 GR
same,GR value,YKL-5-124; 0.1 µM,0.434 GR
same,GR value,YKL-5-124; 0.3162 µM,0.474 GR
same,GR value,YKL-5-124; 1 µM,0.496 GR
same,GR value,YKL-5-124; 3.162 µM,0.231 GR
same,GR value,YKL-5-124; 10 µM,-0.008 GR
same,GR value,[4]; 0.001 µM,0.941 GR
same,GR value,[4]; 0.003162 µM,0.871 GR
same,GR value,[4]; 0.01 µM,0.877 GR
same,GR value,[4]; 0.03162 µM,0.874 GR
same,GR value,[4]; 0.1 µM,0.742 GR
same,GR value,[4]; 0.3162 µM,0.691 GR
same,GR value,[4]; 1 µM,0.613 GR
same,GR value,[4]; 3.162 µM,0.595 GR
same,GR value,[4]; 10 µM,0.5 GR
same,GR value,[5]; 0.0001 µM,1.06 GR
same,GR value,[5]; 0.0003162 µM,1.2 GR
same,GR value,[5]; 0.001 µM,1.04 GR
same,GR value,[5]; 0.003162 µM,0.999 GR
same,GR value,[5]; 0.01 µM,0.955 GR
same,GR value,[5]; 0.03162 µM,0.387 GR
same,GR value,[5]; 0.1 µM,0.227 GR
same,GR value,[5]; 0.3162 µM,0.203 GR
same,GR value,[5]; 1 µM,0.171 GR
same,GR value,[6]; 0.0003162 µM,1 GR
same,GR value,[6]; 0.001 µM,1.03 GR
same,GR value,[6]; 0.003162 µM,0.956 GR
same,GR value,[6]; 0.01 µM,0.996 GR
same,GR value,[6]; 0.03162 µM,0.96 GR
same,GR value,[6]; 0.1 µM,0.923 GR
same,GR value,[6]; 0.3162 µM,0.781 GR
same,GR value,[6]; 1 µM,0.86 GR
same,GR value,[6]; 3.162 µM,0.754 GR
same,GR value,Neratinib/HKI272; 0.0003162 µM,0.996 GR
same,GR value,Neratinib/HKI272; 0.001 µM,1.05 GR
same,GR value,Neratinib/HKI272; 0.003162 µM,0.979 GR
same,GR value,Neratinib/HKI272; 0.01 µM,0.808 GR
same,GR value,Neratinib/HKI272; 0.03162 µM,0.839 GR
same,GR value,Neratinib/HKI272; 0.1 µM,0.681 GR
same,GR value,Neratinib/HKI272; 0.3162 µM,0.595 GR
same,GR value,Neratinib/HKI272; 1 µM,0.476 GR
same,GR value,Neratinib/HKI272; 3.162 µM,0.267 GR

# From the supplement of paper PMC9663587
